Reference: US20220363686A1 (AiCuris GmbH & Co. KG, priority 2018, published 2022)

Assays:
HBV = assay: Determination of HBV DNA from the supernatants of HepAD38 cells (anti-HBV activity); type: cell-based, hepatitis B virus; details: Hepatitis B virus, HePAD38, 144 h, HBV DNA in HepAD38 supernatant, day 6, qPCR; read-out: Cell Activity
How it was run: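 HepAD38 cells (60,000/well) seeded in tetracycline-free medium to induce HBV, treated with half-log serial compound dilutions for 6 days at 37 °C. HBV DNA purified from filtered supernatant and quantified by real-time PCR against HBV plasmid standards; EC50 from relative copy numbers by non-linear regression.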

[1] = Cell viability assay (AlamarBlue); details: human, HepAD38 cells
[2] = biological target: HBV core protein (C-terminal truncated core protein containing 149 amino acids of the N-terminal assembly domain) (UniProt P03146); assay: Biochemical capsid assembly assay (fluorescence quenching); parameters: rows headed: Assembly Activity; other: BODIPY-FL labelled core protein, assembly started with NaCl, read after 6 min; details: read-out: Assembly Activity; BODIPY-FL labelled core protein, assembly started with NaCl, read after 6 min
How it was run: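 N-terminal assembly domain (residues 1–149) plus C-terminal Cys150, E. coli-expressed, BODIPY-FL-maleimide labelled, used at 1.0–2.0 μM in 50 mM HEPES pH 7.5 with 0.5% DMSO. Assembly started with NaCl ([…]); fluorescence quenching (ex 477/em 525 nm) read after 6 min. 8-point compound series; EC50 by non-linear regression.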

HBV core protein (C-terminal truncated core protein containing 149 amino acids of the N-terminal assembly domain), sequence (P03146 whole entry, the tested form may be a part): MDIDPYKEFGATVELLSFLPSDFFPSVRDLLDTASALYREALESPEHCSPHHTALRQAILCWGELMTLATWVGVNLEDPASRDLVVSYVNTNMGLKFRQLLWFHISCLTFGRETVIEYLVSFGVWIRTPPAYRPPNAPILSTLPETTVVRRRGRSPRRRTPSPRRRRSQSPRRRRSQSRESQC

O=C(c1cc2c(Cl)cccc2[nH]1)N1CCn2ncc(C(=O)N3CCCOCC34CC4)c2C1 [Example 110, 4-[5-(4-chloro-1H-indole-2-carbonyl)-4H,5H,6H,7H-pyrazolo[1,5-a]pyrazine-3-carbonyl]-8-oxa-4-azaspiro[2.6]nonane]
EC50 (HBV): < 1 µM | CC50 at 6 days [1]: > 10 µM | IC50 [2]: < 5 µM

CN(C(=O)c1cnn2c1CN(C(=O)c1cc3ccccc3[nH]1)CC2)C1COC1 [Example 135, 5-(1H-indole-2-carbonyl)-N-methyl-N-(oxetan-3-yl)-4H,5H,6H,7H-pyrazolo[1,5-a]pyrazine-3-carboxamide]
EC50 (HBV): < 1 µM | CC50 at 6 days [1]: > 10 µM | IC50 [2]: < 5 µM

O=C(NC1(COC(F)F)CC1)c1cnn2c1CN(C(=O)c1cc3ccccc3[nH]1)CC2 [Example 97, N-{1-[(difluoromethoxy)methyl]cyclopropyl}-5-(1H-indole-2-carbonyl)-4H,5H,6H,7H-pyrazolo[1,5-a]pyrazine-3-carboxamide]
EC50 (HBV): < 1 µM | CC50 at 6 days [1]: > 10 µM | IC50 [2]: < 5 µM

CC(C)OCC1(N(C)C(=O)c2cnn3c2CN(C(=O)c2cc4ccccc4[nH]2)CC3)CC1 [Example 11, 5-(1H-indole-2-carbonyl)-N-methyl-N-{1-[(propan-2-yloxy)methyl]cyclopropyl}-4H,5H,6H,7H-pyrazolo[1,5-a]pyrazine-3-carboxamide]
EC50 (HBV): < 1 µM | CC50 at 6 days [1]: > 10 µM | IC50 [2]: < 5 µM

CN(C(=O)c1cnn2c1CN(C(=O)c1cc3c(Cl)c(F)ccc3[nH]1)CC2)C1(CO)CC1 [Example 96, 5-(4-chloro-5-fluoro-1H-indole-2-carbonyl)-N-[1-(hydroxymethyl)cyclopropyl]-N-methyl-4H,5H,6H,7H-pyrazolo[1,5-a]pyrazine-3-carboxamide]
EC50 (HBV): < 1 µM | CC50 at 6 days [1]: > 10 µM | IC50 [2]: < 5 µM

CN(C(=O)c1cnn2c1CN(C(=O)c1cc3ccccc3[nH]1)CC2)C1(c2cocn2)CC1 [Example 57, 5-(1H-indole-2-carbonyl)-N-methyl-N-[1-(1,3-oxazol-4-yl)cyclopropyl]-4H,5H,6H,7H-pyrazolo[1,5-a]pyrazine-3-carboxamide]
EC50 (HBV): < 1 µM | CC50 at 6 days [1]: > 10 µM | IC50 [2]: < 5 µM

O=C(c1cc2cc(Cl)c(F)cc2[nH]1)N1CCn2ncc(C(=O)N3CCCOCC34CC4)c2C1 [Example 111, 4-[5-(5-chloro-6-fluoro-1H-indole-2-carbonyl)-4H,5H,6H,7H-pyrazolo[1,5-a]pyrazine-3-carbonyl]-8-oxa-4-azaspiro[2.6]nonane]
EC50 (HBV): < 1 µM | CC50 at 6 days [1]: > 10 µM | IC50 [2]: < 5 µM

O=C(c1cc2ccccc2[nH]1)N1CCn2ncc(S(=O)(=O)NCC3(O)CCC3)c2C1 [Example 27, N-[(1-hydroxycyclobutyl)methyl]-5-(1H-indole-2-carbonyl)-4H,5H,6H,7H-pyrazolo[1,5-a]pyrazine-3-sulfonamide]
EC50 (HBV): 1 to 10 µM | CC50 at 6 days [1]: > 10 µM | IC50 [2]: 5 to 10 µM

C[C@@H](NC(=O)c1cnn2c1CN(C(=O)c1cc3c(F)c(F)ccc3[nH]1)CC2)C(F)(F)F [Example 114, 5-(4,5-difluoro-1H-indole-2-carbonyl)-N-[(2R)-1,1,1-trifluoropropan-2-yl]-4H,5H,6H,7H-pyrazolo[1,5-a]pyrazine-3-carboxamide]
EC50 (HBV): < 1 µM | CC50 at 6 days [1]: > 10 µM | IC50 [2]: < 5 µM

CN(C(=O)c1cnn2c1CN(C(=O)c1cc3ccccc3[nH]1)CC2)C1(C2OCCO2)CC1 [Example 138, N-[1-(1,3-dioxolan-2-yl)cyclopropyl]-5-(1H-indole-2-carbonyl)-N-methyl-4H,5H,6H,7H-pyrazolo[1,5-a]pyrazine-3-carboxamide]
EC50 (HBV): < 1 µM | CC50 at 6 days [1]: > 10 µM | IC50 [2]: < 5 µM

CN(C(=O)c1cnn2c1CN(C(=O)c1cc3ccccc3[nH]1)CC2)C1(c2ccc(CO)cc2)CC1 [Example 91, N-{1-[4-(hydroxymethyl)phenyl]cyclopropyl}-5-(1H-indole-2-carbonyl)-N-methyl-4H,5H,6H,7H-pyrazolo[1,5-a]pyrazine-3-carboxamide]
EC50 (HBV): < 1 µM | CC50 at 6 days [1]: > 10 µM | IC50 [2]: < 5 µM

CN(C(=O)c1cnn2c1CN(C(=O)c1cc3c(F)ccc(F)c3[nH]1)CC2)C1(COC(F)F)CC1 [Example 24, 5-(4,7-difluoro-1H-indole-2-carbonyl)-N-{1-[(difluoromethoxy)methyl]cyclopropyl}-N-methyl-4H,5H,6H,7H-pyrazolo[1,5-a]pyrazine-3-carboxamide]
EC50 (HBV): < 1 µM | CC50 at 6 days [1]: > 10 µM | IC50 [2]: < 5 µM

CN(C)S(=O)(=O)c1cnn2c1CN(C(=O)c1cc3ccccc3[nH]1)CC2 [Example 40, 5-(1H-indole-2-carbonyl)-N,N-dimethyl-4H,5H,6H,7H-pyrazolo[1,5-a]pyrazine-3-sulfonamide]
EC50 (HBV): < 1 µM | CC50 at 6 days [1]: > 10 µM | IC50 [2]: < 5 µM

O=C(c1cc2c(Cl)cccc2[nH]1)N1CCn2ncc(C(=O)N3CCC(O)CC34CC4)c2C1 (stereo not drawn) [Example 118, 4-[5-(4-chloro-1H-indole-2-carbonyl)-4H,5H,6H,7H-pyrazolo[1,5-a]pyrazine-3-carbonyl]-4-azaspiro[2.5]octan-7-ol]
EC50 (HBV): < 1 µM | CC50 at 6 days [1]: > 10 µM | IC50 [2]: < 5 µM

CN(Cc1ccccc1)C(=O)c1cnn2c1CN(C(=O)c1cc3ccccc3[nH]1)CC2 [Example 63, N-benzyl-5-(1H-indole-2-carbonyl)-N-methyl-4H,5H,6H,7H-pyrazolo[1,5-a]pyrazine-3-carboxamide]
EC50 (HBV): < 1 µM | CC50 at 6 days [1]: > 10 µM | IC50 [2]: < 5 µM

O=C(NC1(C(F)(F)F)CCC1)c1cnn2c1CN(C(=O)c1cc3ccccc3[nH]1)CC2 [Example 106, 5-(1H-indole-2-carbonyl)-N-[1-(trifluoromethyl)cyclobutyl]-4H,5H,6H,7H-pyrazolo[1,5-a]pyrazine-3-carboxamide]
EC50 (HBV): < 1 µM | CC50 at 6 days [1]: > 10 µM | IC50 [2]: < 5 µM

CN(C(=O)c1cnn2c1CN(C(=O)c1cc3ccccc3[nH]1)CC2)C1(c2cccnc2)CC1 [Example 72, 5-(1H-indole-2-carbonyl)-N-methyl-N-[1-(pyridin-3-yl)cyclopropyl]-4H,5H,6H,7H-pyrazolo[1,5-a]pyrazine-3-carboxamide]
EC50 (HBV): < 1 µM | CC50 at 6 days [1]: > 10 µM | IC50 [2]: < 5 µM

CN(C(=O)c1cnn2c1CN(C(=O)c1cc3c(F)c(F)ccc3[nH]1)CC2)C1(CO)CC1 [Example 81, 5-(4,5-difluoro-1H-indole-2-carbonyl)-N-[1-(hydroxymethyl)cyclopropyl]-N-methyl-4H,5H,6H,7H-pyrazolo[1,5-a]pyrazine-3-carboxamide]
EC50 (HBV): < 1 µM | CC50 at 6 days [1]: > 10 µM | IC50 [2]: < 5 µM

O=C(c1cc2ccccc2[nH]1)N1CCn2ncc(C3(O)CC(c4ccccc4)C3)c2C1 (stereo not drawn) [Example 51, 1-[5-(1H-indole-2-carbonyl)-4H,5H,6H,7H-pyrazolo[1,5-a]pyrazin-3-yl]-3-phenylcyclobutan-1-ol]
EC50 (HBV): 1 to 10 µM | CC50 at 6 days [1]: > 10 µM | IC50 [2]: 5 to 10 µM

O=C(c1cc2c(F)c(F)ccc2[nH]1)N1CCn2ncc(C3CCC3)c2C1 [Example 3, 2-{3-cyclobutyl-4H,5H,6H,7H-pyrazolo[1,5-a]pyrazine-5-carbonyl}-4,5-difluoro-1H-indole]
EC50 (HBV): < 1 µM | CC50 at 6 days [1]: > 10 µM | IC50 [2]: < 5 µM

CN(C(=O)c1cnn2c1CN(C(=O)c1cc3ccccc3[nH]1)CC2)C1CC1 [Example 74, N-cyclopropyl-5-(1H-indole-2-carbonyl)-N-methyl-4H,5H,6H,7H-pyrazolo[1,5-a]pyrazine-3-carboxamide]
EC50 (HBV): < 1 µM | CC50 at 6 days [1]: > 10 µM | IC50 [2]: < 5 µM

COCC1(N(C)C(=O)c2cnn3c2CN(C(=O)c2cc4ccccc4[nH]2)CC3)CC1 [Example 9, 5-(1H-indole-2-carbonyl)-N-[1-(methoxymethyl)cyclopropyl]-N-methyl-4H,5H,6H,7H-pyrazolo[1,5-a]pyrazine-3-carboxamide]
EC50 (HBV): < 1 µM | CC50 at 6 days [1]: > 10 µM | IC50 [2]: < 5 µM

O=C(NCCOC(F)F)c1cnn2c1CN(C(=O)c1cc3ccccc3[nH]1)CC2 [Example 54, N-[2-(difluoromethoxy)ethyl]-5-(1H-indole-2-carbonyl)-4H,5H,6H,7H-pyrazolo[1,5-a]pyrazine-3-carboxamide]
EC50 (HBV): 1 to 10 µM | CC50 at 6 days [1]: > 10 µM | IC50 [2]: < 5 µM

C[C@@H](NC(=O)c1cnn2c1CN(C(=O)c1cc3c(Cl)cccc3[nH]1)CC2)C(F)(F)F [Example 115, 5-(4-chloro-1H-indole-2-carbonyl)-N-[(2R)-1,1,1-trifluoropropan-2-yl]-4H,5H,6H,7H-pyrazolo[1,5-a]pyrazine-3-carboxamide]
EC50 (HBV): < 1 µM | CC50 at 6 days [1]: > 10 µM | IC50 [2]: < 5 µM

O=C(c1cc2ccccc2[nH]1)N1CCn2ncc(C(=O)N3CC4C(C3)C4(F)F)c2C1 (stereo not drawn) [Example 42, 2-(3-{6,6-difluoro-3-azabicyclo[3.1.0]hexane-3-carbonyl}-4H,5H,6H,7H-pyrazolo[1,5-a]pyrazine-5-carbonyl)-1H-indole]
EC50 (HBV): < 1 µM | CC50 at 6 days [1]: > 10 µM | IC50 [2]: < 5 µM

CN(Cc1ccnn1C)C(=O)c1cnn2c1CN(C(=O)c1cc3ccccc3[nH]1)CC2 [Example 55, 5-(1H-indole-2-carbonyl)-N-methyl-N-[(1-methyl-1H-pyrazol-5-yl)methyl]-4H,5H,6H,7H-pyrazolo[1,5-a]pyrazine-3-carboxamide]
EC50 (HBV): < 1 µM | CC50 at 6 days [1]: > 10 µM | IC50 [2]: < 5 µM
